Tests used:
Format in all cases: cell-based
Settings in all cases: after 10, 20, 40 and 60 minutes at all dilutions 1:100, 1:200, 1:400, 1:800
Staphylococcus aureus = test: Antimicrobial activity by agar dilution, Staphylococcus aureus
Method: (§1) The antibacterial properties of the synthesized compound (of 2,16-dioxapentacyclo[7.7.5.0^1,21.0^3,8.0^10,15]henicosa3(8), 10,12,14-tetraene-7,20-dione) were studied by the method of agar dilution. Test solutions of each compound was prepared in concentration of 1% using dimethylformamide as a solvent. Then they were diluted in physiological solution to obtain the final experimental dilutions of 1:100, 1:200, 1:400, and 1:800. The effect of these substances were compared with furacillin in a controllable study. The testing microbes used were gram positive bacteria Staphylococcus aureus, gram negative bacteria Pseudomonas aeruginosa, Escherichia coli, and Candida albicans fungus. The experiments used for this survey were meat-pentonlu agar (EPA) for cultivation of bacteria and Saburo environment for fungi. Each experiment used 1 mL of test solution on each plate for 500 minutes. Two drops of emulsified with microbes feel were added. All experimental samples were taken from the agar after 10, 20, 40, 60 minutes in the environment on the basis of Patrk planted. Bacteria were cultivated at a temperature of 37° C. for 1 day and the mushroom was kept in a thermostat for […] at a temperature of 28° C. Then results were checked. Those of control and the antimicrobial activity for the synthesized compounds are listed in Table 1 below, with furacillin serving as a reference.

Candida albicans = test: Antimicrobial (antifungal) activity by agar dilution, Candida albicans
Method: as §1

Escherichia coli = test: Antimicrobial activity by agar dilution, Escherichia coli
Method: as §1

Pseudomonas aeruginosa = test: Antimicrobial activity by agar dilution, Pseudomonas aeruginosa
Method: as §1

Measured: inhibition activity compared with the inhibition activity of Furacilin

O=C1CCCC2=C1C1c3ccccc3OC3(CCCC(=O)C13)O2 (stereo not shown) [2,16-dioxapentacyclo[7.7.5.0^1,21.0^3,8.0^10,15]henicosa3(8), 10,12,14-tetraene-7,20-dione]
higher inhibition activity: all assays above
